We go through 26 molecules from patent US11312713B2, “Imidazo[4,5-C]quinoline derivatives as LRRK2 inhibitors” (Pfizer Inc., priority 2017, dated 2022).

Molecules are shown by their SMILES. Like-named read-outs stand apart in the source and are kept apart here.

Experiment [1] deals with LRRK2, WT (GST-tagged truncated LRRK2) (Homo sapiens, UniProt Q5S007). As to the kind of experiment: LRRK2 kinase assay (LanthaScreen), wild type. It counts as biochemical. Here is the method: (§1) LRRK2 kinase activity was measured using Lantha Screen technology from Invitrogen. GST-tagged truncated LRRK2 from Invitrogen (Cat #PV4874) was incubated with a fluorescein-labeled peptide substrate based upon ezrin/radixin/moesin (ERM), also known as LRRKtide (Invitrogen cat #PR8976A), in the presence of a dose response of compound. Upon completion, the assay was stopped and detected with a terbium labeled anti-phospho-ERM antibody (Invitrogen, cat #PR8975A). […] Using Echo acoustic dispensing, 60 nL of compound was transferred to a low volume Corning 384-well assay plate. 3 μL of a working solution of substrate (200 nM LRRKtide, 2 mM ATP) prepared in assay buffer (50 mM HEPES, pH 7.5, 3 mM MgCl2, with 2 mM DTT and 0.01% Brij35 added fresh) was added to the 60 nL compound assay plate. The kinase reaction was started with 3 μL of a working solution of LRRK2 enzyme at a concentration of 4 μg/m L. The final reaction concentrations were 100 nM LRRKtide, 1 mM ATP, 2 μg/mL LRRK2 enzyme and a compound dose response with a top dose of 3 μM. The reaction was allowed to progress at room temperature for 30 minutes and then stopped with the addition of 6 μL of detection buffer (20 mM Tris pH 7.6, 0.01% NP-40, 6 mM EDTA with 2 nM terbium labeled antiphospho-ERM). […] All final concentrations of substrate ATP and enzyme were the same.

Experiment [2] deals with mutant G2019S LRRK2 (Homo sapiens (Human), UniProt Q5S007, G2019S). The experiment is described as follows: LRRK2 kinase assay (LanthaScreen), G2019S mutant. The settings on record: G2019S mutant LRRK2; LanthaScreen, LRRKtide substrate; read-out: LRRK2, G2019S IC50. It counts as biochemical. Here is the method: as §1
For orientation: Time-resolved FRET reads energy transfer from a long-lived donor to a nearby acceptor.

[3] abbreviates: wild type LRRK2, LanthaScreen, LRRKtide substrate.

mutant G2019S LRRK2, sequence (Q5S007 whole entry G2019S): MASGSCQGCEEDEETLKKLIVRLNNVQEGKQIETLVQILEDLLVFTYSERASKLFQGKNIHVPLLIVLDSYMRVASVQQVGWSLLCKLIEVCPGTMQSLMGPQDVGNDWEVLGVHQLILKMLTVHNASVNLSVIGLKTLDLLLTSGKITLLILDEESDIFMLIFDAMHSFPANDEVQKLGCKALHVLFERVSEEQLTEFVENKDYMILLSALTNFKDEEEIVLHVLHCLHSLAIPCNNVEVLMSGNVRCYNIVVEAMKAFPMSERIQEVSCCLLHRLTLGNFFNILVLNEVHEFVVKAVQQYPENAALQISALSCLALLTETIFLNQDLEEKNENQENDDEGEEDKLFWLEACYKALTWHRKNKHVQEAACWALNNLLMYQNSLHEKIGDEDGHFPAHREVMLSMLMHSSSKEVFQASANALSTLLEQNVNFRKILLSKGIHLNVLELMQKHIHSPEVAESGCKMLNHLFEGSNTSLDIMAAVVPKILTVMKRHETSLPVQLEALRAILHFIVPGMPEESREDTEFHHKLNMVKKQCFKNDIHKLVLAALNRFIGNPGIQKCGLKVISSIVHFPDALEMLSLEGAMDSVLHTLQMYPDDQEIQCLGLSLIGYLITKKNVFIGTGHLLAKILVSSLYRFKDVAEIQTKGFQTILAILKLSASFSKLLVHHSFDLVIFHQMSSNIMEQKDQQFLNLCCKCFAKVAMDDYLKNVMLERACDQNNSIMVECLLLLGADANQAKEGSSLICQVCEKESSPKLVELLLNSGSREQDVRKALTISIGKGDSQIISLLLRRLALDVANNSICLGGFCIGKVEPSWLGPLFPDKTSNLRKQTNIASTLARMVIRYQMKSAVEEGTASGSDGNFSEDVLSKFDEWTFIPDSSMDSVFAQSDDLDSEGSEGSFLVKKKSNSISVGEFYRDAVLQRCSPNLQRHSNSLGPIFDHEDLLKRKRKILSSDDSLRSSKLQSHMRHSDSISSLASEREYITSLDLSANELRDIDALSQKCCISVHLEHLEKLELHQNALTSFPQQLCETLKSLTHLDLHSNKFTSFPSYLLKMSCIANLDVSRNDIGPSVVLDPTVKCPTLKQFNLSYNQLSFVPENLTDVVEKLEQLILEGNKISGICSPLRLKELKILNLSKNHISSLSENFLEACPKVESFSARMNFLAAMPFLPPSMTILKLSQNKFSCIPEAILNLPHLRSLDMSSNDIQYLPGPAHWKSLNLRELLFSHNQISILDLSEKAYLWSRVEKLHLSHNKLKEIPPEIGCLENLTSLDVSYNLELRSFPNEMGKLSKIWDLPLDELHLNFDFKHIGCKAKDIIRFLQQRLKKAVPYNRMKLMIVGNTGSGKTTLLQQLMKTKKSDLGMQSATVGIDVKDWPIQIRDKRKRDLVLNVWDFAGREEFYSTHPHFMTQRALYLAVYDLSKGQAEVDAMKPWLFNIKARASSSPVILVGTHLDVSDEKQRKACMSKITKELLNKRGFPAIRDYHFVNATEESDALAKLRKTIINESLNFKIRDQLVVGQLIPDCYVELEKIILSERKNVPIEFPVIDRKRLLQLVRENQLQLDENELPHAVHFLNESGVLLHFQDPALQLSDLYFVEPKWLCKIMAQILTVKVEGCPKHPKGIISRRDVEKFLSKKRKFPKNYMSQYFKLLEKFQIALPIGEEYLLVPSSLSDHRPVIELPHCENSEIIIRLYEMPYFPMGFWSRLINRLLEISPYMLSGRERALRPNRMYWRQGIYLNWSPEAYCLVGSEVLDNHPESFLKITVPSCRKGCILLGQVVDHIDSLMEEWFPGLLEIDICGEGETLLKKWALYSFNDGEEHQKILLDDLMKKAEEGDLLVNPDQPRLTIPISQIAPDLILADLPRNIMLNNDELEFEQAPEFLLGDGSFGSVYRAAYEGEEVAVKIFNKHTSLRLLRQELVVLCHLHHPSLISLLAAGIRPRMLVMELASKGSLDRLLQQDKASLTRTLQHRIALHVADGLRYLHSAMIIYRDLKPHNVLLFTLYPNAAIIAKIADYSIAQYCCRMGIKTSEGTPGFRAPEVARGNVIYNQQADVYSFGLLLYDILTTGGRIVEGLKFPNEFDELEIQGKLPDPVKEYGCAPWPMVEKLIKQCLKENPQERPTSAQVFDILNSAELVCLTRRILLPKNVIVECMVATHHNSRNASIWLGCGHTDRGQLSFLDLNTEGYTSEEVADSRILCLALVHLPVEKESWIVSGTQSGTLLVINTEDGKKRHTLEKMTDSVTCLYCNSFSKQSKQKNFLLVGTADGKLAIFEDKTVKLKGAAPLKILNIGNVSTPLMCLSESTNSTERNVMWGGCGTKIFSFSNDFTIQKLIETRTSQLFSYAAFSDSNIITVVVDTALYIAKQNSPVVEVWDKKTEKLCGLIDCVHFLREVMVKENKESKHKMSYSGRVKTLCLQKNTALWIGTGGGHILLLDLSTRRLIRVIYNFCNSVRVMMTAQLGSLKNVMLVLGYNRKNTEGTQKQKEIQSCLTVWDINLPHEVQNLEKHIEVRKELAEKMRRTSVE

As for `Cc1cnc(Cc2nc3cnc4ccc(Cl)cc4c3n2C2CN(C)CC2(F)F)cn1` (centres unmarked) [Example 50, 8-chloro-1-(4,4-difluoro-1-methylpyrrolidin-3-yl)-2-[(5-methylpyrazin-2-yl)methyl]-1H-imidazo[4,5-c]quinoline], the figures for the IC50 in experiment [1] (setting [3]) and in experiment [2] were 5.06 nM and 1.11 nM, respectively.

On to `CCc1nc2cnc3ccc(Cl)cc3c2n1[C@@H]1CCO[C@H](CC#N)C1` [Example 1, [(2S,4R)-4-(8-Chloro-2-ethyl-1H-imidazo[4,5-c]quinolin-1-yl)tetrahydro-2H-pyran-2-yl]acetonitrile], for which the IC50 (as a rule, the midpoint of a concentration-inhibition curve) in experiment [1] (setting [3]) was 10.2 nM; in experiment [2] it was 8.87 nM.

For the molecule `C[C@@H]1C[C@H](n2c(CCC#N)nc3cnc4ccc(Cl)cc4c32)CCO1` [Example 80, 3-{8-chloro-1-[(2R,4R)-2-methyltetrahydro-2H-pyran-4-yl]-1H-imidazo[4,5-c]quinolin-2-yl}propanenitrile], the IC50 was 9.4 nM in experiment [1] (setting [3]) and 11.3 nM in experiment [2].

`Cc1nnc(Cc2nc3cnc4ccc(C(F)(F)F)cc4c3n2[C@@H]2CCO[C@H](C)C2)o1` [Example 70, 2-[(5-methyl-1,3,4-oxadiazol-2-yl)methyl]-1-[(2R,4R)-2-methyltetrahydro-2H-pyran-4-yl]-8-(trifluoromethyl)-1H-imidazo[4,5-c]quinoline]: the IC50 in experiment [1] (setting [3]) was found to be 13.7 nM; in experiment [2], 7.59 nM.

As for `Cc1cnc(Cc2nc3cnc4ccc(Cl)cc4c3n2[C@@H]2CCN(C)C2)cn1` [Example 67, 8-chloro-2-[(5-methylpyrazin-2-yl)methyl]-1-[(3R)-1-methylpyrrolidin-3-yl]-1H-imidazo[4,5-c]quinoline], the 50% inhibitory concentration (IC50) in experiment [1] (setting [3]) turned out to be 8.03 nM; in experiment [2] it was 8.55 nM.

Regarding `C[C@@H]1C[C@H](n2c(Cc3cnc(CO)cn3)nc3cnc4ccc(Cl)cc4c32)CCO1` [Example 95, [5-({8-chloro-1-[(2R,4R)-2-methyltetrahydro-2H-pyran-4-yl]-1H-imidazo[4,5-c]quinolin-2-yl}methyl)pyrazin-2-yl]methanol], the half-maximal inhibitory concentration (IC50) in experiment [1] (setting [3]) turned out to be 4.6 nM; in experiment [2] it was 3.5 nM.

As to `FC1(F)COCCC1n1c(Cn2cncn2)nc2cnc3ccc(Cl)cc3c21` (centres unmarked) [Example 93, 8-chloro-1-(3,3-difluorotetrahydro-2H-pyran-4-yl)-2-(1H-1,2,4-triazol-1-ylmethyl)-1H-imidazo[4,5-c]quinoline], the IC50 is 11 nM in experiment [1] (LanthaScreen, LRRKtide substrate, 1 mM ATP); 11.9 nM in experiment [1] (setting [3]); 8.7 nM in experiment [2].

On to `C[C@@H]1C[C@H](n2c(Cc3nccs3)nc3cnc4ccc(F)cc4c32)CCO1` [Example 64, 8-fluoro-1-[(2R,4R)-2-methyltetrahydro-2H-pyran-4-yl]-2-(1,3-thiazol-2-ylmethyl)-1H-imidazo[4,5-c]quinoline], for which the IC50 in experiment [1] (setting [3]) was 9.8 nM; in experiment [2] it was 6.87 nM.

Regarding `Cc1cc(Cc2nc3cnc4ccc(C(F)F)cc4c3n2[C@@H]2CCO[C@H](C)C2)no1` [Example 91, 8-(difluoromethyl)-2-[(5-methyl-1,2-oxazol-3-yl)methyl]-1-[(2R,4R)-2-methyltetrahydro-2H-pyran-4-yl]-1H-imidazo[4,5-c]quinoline], the values for the IC50 in experiment [1] (setting [3]) and in experiment [2] were 18 nM and 8.4 nM, respectively.

On to `COc1cnn(Cc2nc3cnc4ccc(C#N)cc4c3n2[C@@H]2CCN(C)C2)c1` [Example 36, 2-[(4-methoxy-1H-pyrazol-1-yl)methyl]-1-[(3R)-1-methylpyrrolidin-3-yl]-1H-imidazo[4,5-c]quinoline-8-carbonitrile], for which the figures for the IC50 in experiment [1] (setting [3]) and in experiment [2] were 5 nM and 4.63 nM, respectively.

On to `Cc1cn(Cc2nc3cnc4ccc(C(F)F)cc4c3n2[C@@H]2CCO[C@H](C)C2)nn1` [Example 90, 8-(difluoromethyl)-1-[(2R,4R)-2-methyltetrahydro-2H-pyran-4-yl]-2-[(4-methyl-1H-1,2,3-triazol-1-yl)methyl]-1H-imidazo[4,5-c]quinoline], for which the results for the half-inhibitory concentration (IC50) in experiment [1] (setting [3]) and in experiment [2] were 14.7 nM and 7.32 nM, respectively.

Turning to `C[C@@H]1C[C@H](n2c(Cc3nccs3)nc3cnc4ccc(C#N)cc4c32)CCO1` [Example 61, 1-[(2R,4R)-2-methyltetrahydro-2H-pyran-4-yl]-2-(1,3-thiazol-2-ylmethyl)-1H-imidazo[4,5-c]quinoline-8-carbonitrile], the IC50 in experiment [1] (setting [3]) was found to be 5.79 nM; in experiment [2], 4.17 nM.

As to `Cc1nnn(Cc2nc3cnc4ccc(Cl)cc4c3n2C2CN(C)CC2(F)F)n1` (centres unmarked) [Example 49, 8-chloro-1-(4,4-difluoro-1-methylpyrrolidin-3-yl)-2-[(5-methyl-2H-tetrazol-2-yl)methyl]-1H-imidazo[4,5-c]quinoline], the IC50 in experiment [1] (setting [3]) was determined as 4.48 nM; in experiment [2] it was 1.34 nM.

Consider `Fc1ccc2ncc3nc(Cc4csnn4)n(C4CCC(F)C4)c3c2c1` (stereo not drawn) [Example 79, 8-fluoro-1-[cis-3-fluorocyclopentyl]-2-(1,2,3-thiadiazol-4-ylmethyl)-1H-imidazo[4,5-c]quinoline], for which the half-inhibitory concentration (IC50) in experiment [1] (setting [3]) was found to be 9.73 nM; in experiment [2], 9.75 nM.

Take `Cc1cnc(Cc2nc3cnc4ccc(C#N)cc4c3n2[C@@H]2CCN(C)C2)o1` [Example 38, 2-[(5-methyl-1,3-oxazol-2-yl)methyl]-1-[(3R)-1-methylpyrrolidin-3-yl]-1H-imidazo [4,5-c]quinoline-8-carbonitrile]: the IC50 in experiment [1] (setting [3]) is 7.49 nM; in experiment [2] it was 12.9 nM.

On to `CC1(C)CC(n2c(Cn3cncn3)nc3cnc4ccc(Cl)cc4c32)CCO1` (centres unmarked) [Example 71, 8-chloro-1-(2,2-dimethyltetrahydro-2H-pyran-4-yl)-2-(1H-1,2,4-triazol-1-ylmethyl)-1H-imidazo[4,5-c]quinoline], for which the IC50 in experiment [1] (setting [3]) was determined as 13.7 nM; in experiment [2], 11.9 nM.

Regarding `C[C@@H]1C[C@H](n2c(Cc3nccs3)nc3cnc4ccc(Cl)cc4c32)CCO1` [Example 58, 8-chloro-1-[(2R,4R)-2-methyltetrahydro-2H-pyran-4-yl]-2-(1,3-thiazol-2-ylmethyl)-1H-imidazo[4,5-c]quinoline], the concentration for half-maximal inhibition (IC50) in experiment [1] (setting [3]) was found to be 5.35 nM; in experiment [2], 3 nM.

For `Cc1nc(Cc2nc3cnc4ccc(Cl)cc4c3n2C2CCOCC2(F)F)no1` (centres unmarked) [Example 75], the concentration for half-maximal inhibition (IC50) was 25.7 nM in experiment [1] (setting [3]) and 26.5 nM in experiment [2].

Consider `Cc1cnc(C(O)c2nc3cnc4ccc(Cl)cc4c3n2[C@@H]2CCO[C@H](C)C2)cn1` (single isomer, unassigned) [Example 14], for which the IC50 was 14.2 nM in experiment [1] and 12.8 nM in experiment [2].

Turning to `Cc1nnc(Cc2nc3cnc4ccc(C#N)cc4c3n2[C@@H]2CCN(C)C2)s1` [Example 37, 1-[(3R)-1-methylpyrrolidin-3-yl]-2-[(5-methyl-1,3,4-thiadiazol-2-yl)methyl]-1H-imidazo[4,5-c]quinoline-8-carbonitrile], the 50% inhibitory concentration (IC50) in experiment [1] (setting [3]) is 5.26 nM; in experiment [2], 12.6 nM.

On to `COCc1cn(Cc2nc3cnc4ccc(Cl)cc4c3n2C2CCOCC2(F)F)nn1` (centres unmarked) [Example 55, 8-chloro-1-(3,3-difluorotetrahydro-2H-pyran-4-yl)-2-{[4-(methoxymethyl)-1H-1,2,3-triazol-1-yl]methyl}-1H-imidazo[4,5-c]quinoline], for which the IC50 in experiment [1] (setting [3]) was 11.3 nM; in experiment [2], 6.49 nM.

In the case of `C[C@@H]1C[C@H](n2c(C3CCCC3)nc3cnc4ccc(C#N)cc4c32)CCO1` [Example 30, 2-cyclopentyl-1-[(2R,4R)-2-methyltetrahydro-2H-pyran-4-yl]-1H-imidazo[4,5-c]quinoline-8-carbonitrile], the IC50 in experiment [1] (setting [3]) is 20.6 nM; in experiment [2], 22 nM.

Turning to `Cc1nnn(Cc2nc3cnc4ccc(C#N)cc4c3n2[C@@H]2CCN(C)C2)n1` [Example 34, 1-[(3R)-1-methylpyrrolidin-3-yl]-2-[(5-methyl-2H-tetrazol-2-yl)methyl]-1H-imidazo [4,5-c]quinoline-8-carbonitrile], the IC50 worked out at 5.53 nM in experiment [1] (setting [3]) and 5.04 nM in experiment [2].

Turning to `Cc1nc(Cc2nc3cnc4ccc(Cl)cc4c3n2C2CN(C)CC2(F)F)no1` (centres unmarked) [Example 45, 8-chloro-1-(4,4-difluoro-1-methylpyrrolidin-3-yl)-2-[(5-methyl-1,2,4-oxadiazol-3-yl)methyl]-1H-imidazo[4,5-c]quinoline], the values for the IC50 in experiment [1] (setting [3]) and in experiment [2] were 8.13 nM and 5.82 nM, respectively.

As to `C[C@@H]1C[C@H](n2c(Cn3cncn3)nc3cnc4ccc(C(F)(F)F)cc4c32)CCO1` [Example 66, 1-[(2R,4R)-2-methyltetrahydro-2H-pyran-4-yl]-2-(1H-1,2,4-triazol-1-ylmethyl)-8-(trifluoromethyl)-1H-imidazo[4,5-c]quinoline], the IC50 in experiment [1] (setting [3]) came to 8.32 nM; in experiment [2], 8.01 nM.

For the molecule `Cc1nnc(Cc2nc3cnc4ccc(C(F)(F)F)cc4c3n2[C@@H]2CCO[C@H](C)C2)s1` [Example 74, 1-[(2R,4R)-2-methyltetrahydro-2H-pyran-4-yl]-2-[(5-methyl-1,3,4-thiadiazol-2-yl)methyl]-8-(trifluoromethyl)-1H-imidazo[4,5-c]quinoline], the 50% inhibitory concentration (IC50) in experiment [1] (setting [3]) came to 26.1 nM; in experiment [2], 13.5 nM.
